In patent US6090802A, “1- Methylcarbapenem derivatives” (Sankyo Company, Limited, priority 1995, dated 2000) one finds MIC and nephrotoxicity data, which are given here for ten molecules.

In data set [1] the test system is Staphylococcus aureus 209P. Put plainly: Antibacterial activity, agar plate dilution method (MIC). The conditions noted are these: Microorganism A: Staphylococcus aureus 209P; read-out: Minimal inhibitory concentration. It is filed as cell-based. The protocol:
Antibacterial activity was measured by the agar plate dilution method, whereby the minimal inhibitory concentration (μg/ml) against various pathogenic bacteria was determined. In the Table, bacteria A, B and C provided for the test are as follows: A: Staphylococcus aureus […]

The test system of data set [2] is Pseudomonas aeruginosa 1001. The data set is described as above. It is filed as cell-based. The conditions noted are these: Microorganism C: Pseudomonas aeruginosa 1001; read-out: Minimal inhibitory concentration. The protocol:
Antibacterial activity was measured by the agar plate dilution method, whereby the minimal inhibitory concentration (μg/ml) against various pathogenic bacteria was determined. In the Table, bacteria A, B and C provided for the test are as follows: C: Pseudomonas aeruginosa 1001

The next data set deals with Escherichia coli NIHJ. Described as above. It is filed as cell-based. The settings on record: Microorganism B: Escherichia coli NIHJ; read-out: Minimal inhibitory concentration. The protocol: Antibacterial activity was measured by the agar plate dilution method, whereby the minimal inhibitory concentration (μg/ml) against various pathogenic bacteria was determined. In the Table, bacteria A, B and C provided for the test are as follows: B: Escherichia coli NIHJ

For data set [3] the following is noted: in words; background art; cited from earlier work.

≈ marks a conversion by molar mass, not a printed value.

As to `C[C@@H](O)[C@H]1C(=O)N2C(C(=O)O)=C(S[C@@H]3CN[C@H](C(=O)N4CC[C@H](NC(=O)[C@@H]5CCCN5)C4)C3)[C@H](C)[C@H]12` [Ex. 1, (1R,5S,6S)-6-(1R)-[1-Hydroxyethyl]-1-methyl-2-[(2S,4S)-2-[(3S)-3-(L-prolylamino)pyrrolidin-1-ylcarbonyl]pyrrolidin-4-ylthio]-1-carbapen-2-em-3-carboxylic acid], the MIC is at most 0.01 µg/mL in data set [1], 0.1 µg/mL (≈ 0.192 µM) in data set [2] and at most 0.01 µg/mL with Escherichia coli NIHJ.

As to `C[C@@H](O)[C@H]1C(=O)N2C(C(=O)O)=C(S[C@@H]3CN[C@H](C(=O)N4CC[C@H](NC(=O)CNC(=N)N)C4)C3)[C@H](C)[C@H]12` [Ex. 8], the MIC in data set [1] was at most 0.01 µg/mL; in data set [2] it was 0.05 µg/mL (≈ 0.0955 µM); with Escherichia coli NIHJ, at most 0.01 µg/mL.

Take `C[C@@H](O)[C@H]1C(=O)N2C(C(=O)O)=C(S[C@@H]3CN[C@H](C(O)CC(=O)N4CC[C@H](N)C4)C3)[C@H](C)[C@H]12` (stereo partly drawn) [Ex. 12, (1R,5S,6S)-2-[(2S,4S)-2-[1-Hydroxy-2-[(3S)-3-aminopyrrolidin-1-ylcarbonyl]ethyl]-pyrrolidin-4-ylthio]-6-[(1R)-1-hydroxyethyl]-1-methyl-1-carbapen-2-em-3-carboxylic acid]: the figures for the MIC (in data set [1]; in data set [2]; in the data set with Escherichia coli NIHJ) were at most 0.01 µg/mL, 0.2 µg/mL (≈ 0.427 µM) and 0.02 µg/mL (≈ 0.0427 µM), respectively.

On to `C[C@@H](O)[C@H]1C(=O)N2C(C(=O)O)=C(S[C@@H]3CN[C@H](C(=O)N4CC(NC(=O)CCNC(=N)N)C4)C3)[C@H](C)[C@H]12` [Ex. 17, (1R,5S,6S)-2-[(2S,4S)-2-[3-(3-Guanidinopropanoylamino)azetidin-1-ylcarbonyl]-pyrrolidin-4-ylthio]-6-[(1R)-1-hydroxyethyl]-1-methyl-1-carbapen-2-em-3-carboxylic acid], for which the MIC in data set [1] is at most 0.01 µg/mL; in data set [2], 0.05 µg/mL (≈ 0.0955 µM); in the data set on Escherichia coli NIHJ, at most 0.01 µg/mL.

Regarding `C[C@@H](NC(=N)N)C(=O)N[C@H]1CCN(C(=O)[C@@H]2C[C@H](SC3=C(C(=O)O)N4C(=O)[C@H]([C@@H](C)O)[C@H]4[C@H]3C)CN2)C1` [Ex. 27, (1R,5S,6S)-2-[(2S,4S)-2-[(3S)-3-[(2R)-2-Guanidino-2-methylacetylamino]pyrrolidin-1-ylcarbonyl]pyrrolidin-4-ylthio]-6-[(1R)-1-hydroxyethyl]-1-methyl-1-carbapen-2-em-3-carboxylic acid], the MIC in data set [1] was at most 0.01 µg/mL; in data set [2] it was 0.05 µg/mL (≈ 0.093 µM); in the data set with Escherichia coli NIHJ, at most 0.01 µg/mL.

As to `C[C@@H](O)[C@H]1C(=O)N2C(C(=O)O)=C(S[C@@H]3CN[C@H](C(O)CC(=O)N[C@H]4CCNC4)C3)[C@H](C)[C@H]12` (stereo partly shown) [Ex. 49], the MIC in data set [1] is at most 0.01 µg/mL; in data set [2] it was 0.4 µg/mL (≈ 0.854 µM); in the data set with Escherichia coli NIHJ, 0.02 µg/mL (≈ 0.0427 µM).

For `C[C@@H](O)[C@H]1C(=O)N2C(C(=O)O)=C(S[C@@H]3CN[C@H](C(O)CC(=O)N4CCN(C(=N)N)CC4)C3)[C@H](C)[C@H]12` (stereo partly drawn) [Ex. 51, (1R,5S,6S)-2-[(2S,4S)-2-[2-(4-Guanylpiperazin-1-ylcarbonyl)-1-hydroxyethyl]-pyrrolidin-4-ylthio]-6-[(1R)-1-hydroxyethyl]-1-methyl-1-carbapen-2-em-3-carboxylic acid], the MIC in data set [1] was at most 0.01 µg/mL; in data set [2], 0.2 µg/mL (≈ 0.392 µM); in the data set on Escherichia coli NIHJ it was 0.02 µg/mL (≈ 0.0392 µM).

As for `C[C@@H](O)[C@H]1C(=O)N2C(C(=O)O)=C(S[C@@H]3CN[C@H]([C@H](O)CC(=O)N4CC[C@H](N)C4)C3)[C@H](C)[C@H]12` [Ex. 59, (1R,5S,6S)-2-[(2S,4S)-2-[2-[(3S)-3-Aminopyrrolidin-1-ylcarbonyl]-(1R)-1-hydroxyethyl]pyrrolidin-4-ylthio]-6-[(1R)-1-hydroxyethyl]-1-methyl-1-carbapen-2-em-3-carboxylic acid], the MIC in data set [1] was at most 0.01 µg/mL; in data set [2], 0.2 µg/mL (≈ 0.427 µM); with Escherichia coli NIHJ it was 0.02 µg/mL (≈ 0.0427 µM).

With `C[C@@H](O)[C@H]1C(=O)N2C(C(=O)O)=C(S[C@@H]3CN[C@H]([C@@H](O)CC(=O)N4CC[C@H](N)C4)C3)[C@H](C)[C@H]12` [Ex. 60, (1R,5S,6S)-2-[(2S,4S)-2-[2-[(3S)-3-Aminopyrrolidin-1-ylcarbonyl]-(1S)-1-hydroxyethyl]pyrrolidin-4-ylthio]-6-[(1R)-1-hydroxyethyl]-1-methyl-1-carbapen-2-em-3-carboxylic acid], the MIC in data set [1] is at most 0.01 µg/mL; in data set [2], 0.4 µg/mL (≈ 0.854 µM); in the data set with Escherichia coli NIHJ, 0.02 µg/mL (≈ 0.0427 µM).

As to `C[C@@H](O)[C@H]1C(=O)N2C(C(=O)O)=C(SCCN=CN)C[C@H]12` [Imipenem, imipenem, reference compound], the nephrotoxicity result in data set [3] is “exhibits nephrotoxicity”. Besides, the MIC in data set [1] was at most 0.01 µg/mL; in data set [2], 3.1 µg/mL (≈ 10.4 µM); in the data set on Escherichia coli NIHJ, 0.05 µg/mL (≈ 0.167 µM).
